The values that follow come from patent publication US10077261B2, “Imidazolin-5-one derivative useful as FASN inhibitors for the treatment of cancer” (Janssen Pharmaceutica NV, priority 2012, dated 2018).

Where only a bound is given, the exact number is not on record here.

The test system of experiment [1] is A2780 ovarian cells. The experiment in a line: A2780 ovarian cell proliferation assay in lipid reduced medium, without palmitate (MTT). In kind it is cell-based. The note with it: Homo sapiens, A2780, 96 h; read-out: pIC50 A2780 Ovarian Cell, Without Palmitate (converted).
Experiment [2] has as its system LNCaP-Vancouver prostate cells. The experiment in a line: In vitro LNCaP Vancouver prostate cell proliferation assay in lipid reduced medium. In kind it is cell-based. The note with it: read-out: pIC50 LNCaP_Vancouver prostate cell (converted).
Experiment [3] has as its system A2780 ovarian cells. The experiment in a line: A2780 ovarian cell proliferation assay in lipid reduced medium, with palmitate (MTT). In kind it is cell-based. The note with it: Homo sapiens, A2780, 96 h; read-out: pIC50 A2780 Ovarian Cell, With Palmitate (converted). Summed up: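 In this palmitate-supplemented format, compound dilutions (30 μM down to 0.01 μM) are added to cells in lipid-reduced serum with 25 μM palmitate, 0.2% fatty-acid-free BSA and 0.25% ethanol. After four days (96 h) MTT absorbance at 544 nm is recorded and fitted by minimum sum of squares.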

The target of experiment [4] is T1, hFASN enzyme (full length) (Homo sapiens, UniProt P49327).
T1 construct: 10 μL hFASN enzyme (full length, 300 ng, purified in house); made in house
The experiment in a line: Fatty Acid Synthase (FASN) inhibition scintillation proximity assay. The conditions noted are these: for inhibition at 10 µM: read-out: Human FASN % inhibition @ 10 μM, 10 μM test compound; for IC50: read-out: Human FASN pIC50 (converted). In kind it is biochemical. The essentials:
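Read-out relies on hydrophobic ³H-palmitate product, formed from ³H-acetyl-CoA and malonyl-CoA, binding streptavidin imaging beads, measured at 610±20 nm after at least 24 h. Full-length enzyme (300 ng) in phosphate buffer pH 7.5 with DTT; eight compound concentrations, 0.01–30 μM.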
Background: SPA uses beads or plates that emit light when radiolabelled molecules are held near them.

Experiment [5] relates to PC-3M-Luc-C6 prostate cells. The experiment can be described thus: In vitro PC-3M-Luc-C6 prostate cell proliferation assay in lipid reduced medium. In kind it is cell-based. The conditions noted are these: 96 h, read-out: pIC50 PC-3M-Luc-C6 prostate cell (converted).
For experiment [6], the target named is Fatty Acid Synthase Keto-reductase Domain (FASN KR) (Homo sapiens, UniProt P49327). The experiment in a line: Fatty Acid Synthase keto-reductase domain (FASN KR) inhibition, NADPH oxidation at 340 nm.
Fatty Acid Synthase Keto-reductase Domain (FASN KR), sequence (P49327 whole entry, the tested form may be a part): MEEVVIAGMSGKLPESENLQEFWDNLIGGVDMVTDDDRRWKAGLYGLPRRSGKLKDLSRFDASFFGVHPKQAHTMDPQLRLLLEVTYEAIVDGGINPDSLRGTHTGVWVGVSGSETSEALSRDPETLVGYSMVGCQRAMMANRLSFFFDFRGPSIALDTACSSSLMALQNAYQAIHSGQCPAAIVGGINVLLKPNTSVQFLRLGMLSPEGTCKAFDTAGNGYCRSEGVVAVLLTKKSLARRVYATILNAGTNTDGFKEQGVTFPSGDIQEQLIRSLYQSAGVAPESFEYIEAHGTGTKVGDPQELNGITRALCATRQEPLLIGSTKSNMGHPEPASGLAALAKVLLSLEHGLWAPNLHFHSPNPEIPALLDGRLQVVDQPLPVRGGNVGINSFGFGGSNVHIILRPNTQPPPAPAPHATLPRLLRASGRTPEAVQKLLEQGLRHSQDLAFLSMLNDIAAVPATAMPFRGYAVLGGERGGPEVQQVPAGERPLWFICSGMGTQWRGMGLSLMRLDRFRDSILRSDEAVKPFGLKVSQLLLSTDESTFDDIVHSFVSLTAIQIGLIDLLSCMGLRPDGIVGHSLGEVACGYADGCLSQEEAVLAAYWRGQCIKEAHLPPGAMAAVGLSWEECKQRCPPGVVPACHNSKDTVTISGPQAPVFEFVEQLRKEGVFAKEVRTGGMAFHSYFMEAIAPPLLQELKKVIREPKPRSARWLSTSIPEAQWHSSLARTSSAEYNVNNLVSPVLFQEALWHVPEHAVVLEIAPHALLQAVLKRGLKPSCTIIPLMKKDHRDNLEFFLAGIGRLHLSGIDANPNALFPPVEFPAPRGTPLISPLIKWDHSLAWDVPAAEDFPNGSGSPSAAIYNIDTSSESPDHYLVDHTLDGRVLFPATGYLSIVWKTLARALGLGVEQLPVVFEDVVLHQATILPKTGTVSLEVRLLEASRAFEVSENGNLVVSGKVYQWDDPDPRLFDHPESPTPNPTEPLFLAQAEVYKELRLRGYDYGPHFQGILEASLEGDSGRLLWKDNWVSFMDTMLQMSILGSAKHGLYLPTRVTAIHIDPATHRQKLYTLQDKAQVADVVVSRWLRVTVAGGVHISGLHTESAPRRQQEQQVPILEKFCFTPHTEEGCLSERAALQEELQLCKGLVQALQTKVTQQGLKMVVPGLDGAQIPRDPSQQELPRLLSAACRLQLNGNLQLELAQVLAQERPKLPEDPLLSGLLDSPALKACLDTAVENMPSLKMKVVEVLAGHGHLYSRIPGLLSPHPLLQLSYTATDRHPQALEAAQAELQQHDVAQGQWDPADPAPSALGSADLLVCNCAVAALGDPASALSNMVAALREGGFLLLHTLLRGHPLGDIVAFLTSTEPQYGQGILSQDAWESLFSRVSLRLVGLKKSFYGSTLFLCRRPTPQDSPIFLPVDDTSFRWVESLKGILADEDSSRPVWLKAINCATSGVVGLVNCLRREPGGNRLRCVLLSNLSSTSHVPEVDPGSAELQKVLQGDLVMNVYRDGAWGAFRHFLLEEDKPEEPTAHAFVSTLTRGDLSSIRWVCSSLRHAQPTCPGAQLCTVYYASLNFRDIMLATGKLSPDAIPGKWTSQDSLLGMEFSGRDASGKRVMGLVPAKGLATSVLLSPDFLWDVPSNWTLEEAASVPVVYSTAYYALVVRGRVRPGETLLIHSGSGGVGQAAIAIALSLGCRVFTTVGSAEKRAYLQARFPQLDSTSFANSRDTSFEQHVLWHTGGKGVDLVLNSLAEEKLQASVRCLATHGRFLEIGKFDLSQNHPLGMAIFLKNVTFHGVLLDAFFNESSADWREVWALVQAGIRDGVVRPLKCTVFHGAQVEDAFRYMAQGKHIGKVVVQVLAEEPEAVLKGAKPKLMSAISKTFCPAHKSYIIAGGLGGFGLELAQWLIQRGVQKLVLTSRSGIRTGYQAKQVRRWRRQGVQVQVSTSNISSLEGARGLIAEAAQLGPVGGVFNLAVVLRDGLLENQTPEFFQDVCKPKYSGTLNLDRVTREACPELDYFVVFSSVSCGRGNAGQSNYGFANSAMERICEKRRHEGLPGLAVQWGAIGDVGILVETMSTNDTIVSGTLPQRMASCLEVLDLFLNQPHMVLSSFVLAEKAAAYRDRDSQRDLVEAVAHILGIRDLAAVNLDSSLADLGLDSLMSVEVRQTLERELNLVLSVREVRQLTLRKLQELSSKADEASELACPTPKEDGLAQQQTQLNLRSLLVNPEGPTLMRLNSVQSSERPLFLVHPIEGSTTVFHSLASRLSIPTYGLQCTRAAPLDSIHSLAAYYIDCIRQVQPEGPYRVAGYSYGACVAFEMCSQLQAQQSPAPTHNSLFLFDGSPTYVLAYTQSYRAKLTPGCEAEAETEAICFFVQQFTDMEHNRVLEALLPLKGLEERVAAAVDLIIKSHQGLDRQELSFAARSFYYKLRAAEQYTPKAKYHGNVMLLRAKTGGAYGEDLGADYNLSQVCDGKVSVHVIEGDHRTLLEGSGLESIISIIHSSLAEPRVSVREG
Method: After 20 minutes incubation at room temperature the plate was measured again (T2).
The decrease in absorbance was calculated as (Absorbance before incubation T1)−(Absorbance following incubation T2).
A plot of Controlmin versus test compound concentration was fitted to a 4-parameter logistic curve using a non-linear least squares regression method.

T1 sequence (P49327 whole entry): as the sequence (P49327 whole entry, the tested form may be a part) above

Usually inhibition stands for the change of the read-out against control, counted positive when it falls. As for `Cc1[nH]c2ccc(-c3ccc(C4=NC5(CC5)C(=O)N4C[C@@H]4CCN(C(=O)C5CC5)C4)cc3)cc2c1C` [compound 213, (R)-6-((1-(cyclopropanecarbonyl)pyrrolidin-3-yl)methyl)-5-(4-(2,3-dimethyl-1H-indol-5-yl)phenyl)-4,6-diazaspiro[2.4]hept-4-en-7-one], the IC50 in experiment [1] is 115 nM; in experiment [2], 355 nM; in experiment [3] it was over 10000 nM; in experiment [4], 46.8 nM; in experiment [5], about 112 nM; in experiment [6] it was 75.9 nM. In addition, in experiment [4], the inhibition at 10 µM came to 95%.
Regarding `Cc1cc2cc(-c3ccc(C4=NC5(CC5)C(=O)N4C[C@@H]4CCN(C(=O)C5CC5)C4)cc3)ccc2[nH]1` [compound 214, (R)-6-((1-(cyclopropanecarbonyl)pyrrolidin-3-yl)methyl)-5-(4-(2-methyl-1H-indol-5-yl)phenyl)-4,6-diazaspiro[2.4]hept-4-en-7-one], the IC50 in experiment [1] is about 64.6 nM; in experiment [2], 363 nM; in experiment [3], over 10000 nM; in experiment [4] it was 22.4 nM; in experiment [5], 66.1 nM; in experiment [6] it was 81.3 nM. The inhibition at 10 µM in experiment [4] was 99%.
`Cn1ccc2cc(-c3ccc(C4=NC5(CC5)C(=O)N4C[C@@H]4CCN(C(=O)C5CC5)C4)cc3)ccc21` [compound 215, (R)-6-((1-(cyclopropanecarbonyl)pyrrolidin-3-yl)methyl)-5-(4-(1-methyl-1H-indol-5-yl)phenyl)-4,6-diazaspiro[2.4]hept-4-en-7-one]: the IC50 in experiment [1] was 20.4 nM; in experiment [2], 70.8 nM; in experiment [3], over 10000 nM; in experiment [4], 23.4 nM; in experiment [5], 15.8 nM; in experiment [6] it was 24.5 nM. For the same compound, in experiment [4], the inhibition at 10 µM worked out at 102%.
`O=C(C1CC1)N1CC[C@@H](CN2C(=O)C3(CC3)N=C2c2ccc(-c3ccc4[nH]c(CO)cc4c3)cc2)C1` [compound 216, (R)-6-((1-(cyclopropanecarbonyl)pyrrolidin-3-yl)methyl)-5-(4-(2-(hydroxymethyl)-1H-indol-5-yl)phenyl)-4,6-diazaspiro[2.4]hept-4-enn-7-one]: the IC50 was 63.1 nM in experiment [1]; 162 nM in experiment [2]; over 10000 nM in experiment [3]; 28.8 nM in experiment [4]; about 53.7 nM in experiment [5]; 49 nM in experiment [6]. For the same compound, the inhibition at 10 µM in experiment [4] was determined as 102%.
Consider `O=C(C1CC1)N1CC[C@@H](CN2C(=O)C3(CC3)N=C2c2ccc(-c3ccc4[nH]cc(CCO)c4c3)cc2)C1` [compound 217, (R)-6-((1-(cyclopropanecarbonyl)pyrrolidin-3-yl)methyl)-5-(4-(3-(2-hydroxyethyl)-1H-indol-5-yl)phenyl)-4,6-diazaspiro[2.4]hept-4-en-7-one], for which the IC50 in experiment [1] was 30.2 nM; in experiment [2], 178 nM; in experiment [3] it was over 10000 nM; in experiment [4], 28.8 nM; in experiment [5], 50.1 nM; in experiment [6], 49 nM. The inhibition at 10 µM in experiment [4] stood at 103%.
With `Cc1nn(C)c2ccc(-c3ccc(C4=NC5(CC5)C(=O)N4C[C@@H]4CCN(C(=O)C5CC5)C4)cc3)cc12` [compound 218, (R)-6-((1-(cyclopropanecarbonyl)pyrrolidin-3-yl)methyl)-5-(4-(1,3-dimethyl-1H-indazol-5-yl)phenyl)-4,6-diazaspiro[2.4]hept-4-en-7-one], the IC50 was 85.1 nM in experiment [1]; 417 nM in experiment [2]; over 10000 nM in experiment [3]; 72.4 nM in experiment [4]; 72.4 nM in experiment [5]; 102 nM in experiment [6]. Further, in experiment [4], the inhibition at 10 µM worked out at 95%.
Consider `Nc1cc2cc(-c3ccc(C4=NC5(CC5)C(=O)N4C[C@@H]4CCN(C(=O)C5CC5)C4)cc3)ccc2cn1` [compound 219, (R)-5-(4-(3-aminoisoquinolin-6-yl)phenyl)-6-((1-(cyclopropanecarbonyl)pyrrolidin-3-yl)methyl)-4,6-diazaspiro[2.4]hept-4-en-7-one], for which the IC50 in experiment [1] is 67.6 nM; in experiment [2], 302 nM; in experiment [3], 1170 nM; in experiment [4], 75.9 nM; in experiment [5] it was 126 nM; in experiment [6] it was 263 nM. Further, in experiment [4], the inhibition at 10 µM is 103%.
Regarding `Cn1nc(C(N)=O)c2ccc(-c3ccc(C4=NC5(CC5)C(=O)N4C[C@@H]4CCN(C(=O)C5CC5)C4)cc3)cc21` [compound 221, (R)-6-(4-(6-((1-(cyclopropanecarbonyl)pyrrolidin-3-yl)methyl)-7-oxo-4,6-diazaspiro[2.4]hept-4-en-5-yl)phenyl)-1-methyl-1H-indazole-3-carboxamide], the IC50 in experiment [1] is 46.8 nM; in experiment [2] it was about 380 nM; in experiment [3], 6920 nM; in experiment [4], 97.7 nM; in experiment [5], 132 nM; in experiment [6], 234 nM. The inhibition at 10 µM in experiment [4] turned out to be 92%.
With `N#Cc1ccc2cc(-c3ccc(C4=NC5(CC5)C(=O)N4CC4CN(C(=O)C5CC5)C4)c(F)c3)ccc2c1` [compound 222, 6-(4-(6-((1-(cyclopropanecarbonyl)azetidin-3-yl)methyl)-7-oxo-4,6-diazaspiro[2.4]hept-4-en-5-yl)-3-fluorophenyl)-2-naphthanitrile], the IC50 is 6.17 nM in experiment [1]; 46.8 nM in experiment [2]; about 2450 nM in experiment [3]; 27.5 nM in experiment [4]; 9.33 nM in experiment [5]; about 51.3 nM in experiment [6]. Also, the inhibition at 10 µM in experiment [4] worked out at 103%.
Turning to `Cc1cc(-c2ccc3cc(C#N)ccc3c2)ccc1C1=NC2(CC2)C(=O)N1CC1CN(C(=O)C2CCO2)C1` (centres unmarked) [compound 224, 6-(3-methyl-4-(6-((1-(oxetane-2-carbonyl)azetidin-3-yl)methyl)-7-oxo-4,6-diazaspiro[2.4]hept-4-en-5-yl)phenyl)-2-naphthonitrile], the IC50 was 7.76 nM in experiment [1]; 56.2 nM in experiment [2]; about 10000 nM in experiment [3]; 25.1 nM in experiment [4]; 12.6 nM in experiment [5]; 77.6 nM in experiment [6]. The inhibition at 10 µM in experiment [4] stood at 103%.
For the compound `N#Cc1ccc2cc(-c3ccc(C4=NC5(CC5)C(=O)N4CC4CN(C(=O)C5(F)CC5)C4)c(F)c3)ccc2c1` [compound 225, 6-(3-fluoro-4-(6-((1-(1-fluorocyclopropanecarbonyl)azetidin-3-yl)methyl)-7-oxo-4,6-diazaspiro[2.4]hept-4-en-5-yl)phenyl)-2-naphthonitrile], the IC50 in experiment [1] was 25.1 nM; in experiment [2], 158 nM; in experiment [3], 5250 nM; in experiment [4], 38 nM; in experiment [5], 26.9 nM; in experiment [6], 74.1 nM. Besides, in experiment [4], the inhibition at 10 µM worked out at 95%.
In the case of `N#Cc1ccc2cc(-c3ccc(C4=NC5(CC5)C(=O)N4CC4CN(C(=O)C5CCO5)C4)c(F)c3)ccc2c1` (centres unmarked) [compound 226, 6-(3-fluoro-4-(6-((1-(oxetane-2-carbonyl)azetidin-3-yl)methyl)-7-oxo-4,6-diazaspiro[2..4]hept-4-en-5-yl)phenyl)-2-naphthonitrile], the IC50 in experiment [1] was 2.34 nM; in experiment [2] it was 21.9 nM; in experiment [3], over 10000 nM; in experiment [4] it was 23.4 nM; in experiment [5] it was about 5.89 nM; in experiment [6], 24 nM. Also, in experiment [4], the inhibition at 10 µM came to 98%.
With `Cn1cc2ccc(-c3ccc(C4=NC5(CC5)C(=O)N4CC4CN(C(=O)C5CC5)C4)c(F)c3)cc2n1` [compound 227, 6-((1-(cyclopropanecarbonyl)azetidin-3-yl)methyl)-5-(2-fluoro-4-(2-methyl-2H-indazol-6-yl)phenyl)-4,6-diazaspiro[2.4]hept-4-en-7-one], the IC50 is 13.2 nM in experiment [1]; 355 nM in experiment [2]; over 10000 nM in experiment [3]; 42.7 nM in experiment [4]; 55 nM in experiment [5]; 151 nM in experiment [6]. For the same compound, the inhibition at 10 µM in experiment [4] was determined as 99%.
Consider `Cc1cc(C2=NC3(CC3)C(=O)N2C[C@@H]2CCN(C(=O)C3CC3)C2)ccc1-c1ccc2sc(C)c(C)c2c1` [compound 231, (R)-6-((1-(cyclopropanecarbonyl)pyrrolidin-3-yl)methyl)-5-(4-(2,3-dimethylbenzo[b]thiophen-5-yl)-3-methylphenyl)-4,6-diazaspiro[2.4]hept-4-em-7-one], for which the IC50 in experiment [1] was 2510 nM; in experiment [2], 2190 nM; in experiment [3], over 6170 nM; in experiment [4], 100 nM; in experiment [5], about 1620 nM; in experiment [6], 282 nM. Moreover, in experiment [4], the inhibition at 10 µM stood at 108%.
